Several values for one entry are separate records, joined by “and”; a condition that tells them apart may be missing. Equal values may be shown once. Inconclusive results and toxic doses are left out. Rule for the calls: active = survival T/C of 150% or more; inactive = T/C below 125% in these data.
Test system: CD2F1 mice, L1210 leukemia ip, survival T/C
Assay: NCI In Vivo Anticancer Drug Screen. Data for tumor model L1210 Leukemia (intraperitoneal) in CD2F1 (CDF1) mice
Conditions: higher = longer survival
How it was run: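 Mice carrying a transplanted tumor received test compound or vehicle alone. The value is the measurement in the treated group divided by that in the vehicle-treated control group.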

[1] = endpoint: mean survival time, dose: 25.0 mg/kg/injection, schedule: Q01DX009 (ip), vehicle: saline
[2] = endpoint: mean survival time, dose: 50.0 mg/kg/injection, schedule: Q01DX009 (ip), vehicle: saline
[3] = endpoint: mean survival time, dose: 100.0 mg/kg/injection, schedule: Q01DX009 (ip), vehicle: saline with Tween-80
[4] = endpoint: mean survival time, dose: 100.0 mg/kg/injection, schedule: Q04DX003 (ip), vehicle: saline with Tween-80
[5] = endpoint: mean survival time, dose: 200.0 mg/kg/injection, schedule: Q01DX009 (ip), vehicle: saline with Tween-80
[6] = endpoint: mean survival time, dose: 200.0 mg/kg/injection, schedule: Q04DX003 (ip), vehicle: saline with Tween-80
[7] = endpoint: mean survival time, dose: 100.0 mg/kg/injection, schedule: Q01DX001 (ip), vehicle: saline with Tween-80
[8] = endpoint: mean survival time, dose: 75.0 mg/kg/injection, schedule: Q01DX001 (ip), vehicle: other
[9] = endpoint: mean survival time, dose: 150.0 mg/kg/injection, schedule: Q01DX001 (ip), vehicle: other
[10] = endpoint: mean survival time, dose: 300.0 mg/kg/injection, schedule: Q01DX001 (ip), vehicle: other
[11] = endpoint: mean survival time, dose: 400.0 mg/kg/injection, schedule: Q04DX003 (ip), vehicle: saline with Tween-80
[12] = endpoint: mean survival time, dose: 100.0 mg/kg/injection, schedule: Q04DX003 (ip), vehicle: saline
[13] = endpoint: mean survival time, dose: 200.0 mg/kg/injection, schedule: Q04DX003 (ip), vehicle: saline
[14] = endpoint: mean survival time, dose: 100.0 mg/kg/injection, schedule: Q01DX009 (ip), vehicle: saline
[15] = endpoint: mean survival time, dose: 400.0 mg/kg/injection, schedule: Q01DX009 (ip), vehicle: saline with Tween-80

Measured: T/C

OCCN1CCN(CC/C=C2/c3ccccc3Sc3ccc(Cl)cc32)CC1
inactive: endpoint: mean survival time, dose: 1.56 mg/kg/injection, schedule: Q01DX009 (ip), vehicle: saline 92 % of control and 97 % of control | endpoint: mean survival time, dose: 3.12 mg/kg/injection, schedule: Q01DX009 (ip), vehicle: saline 98 % of control | endpoint: mean survival time, dose: 6.25 mg/kg/injection, schedule: Q01DX009 (ip), vehicle: saline 104 % of control and 110 % of control | endpoint: mean survival time, dose: 12.5 mg/kg/injection, schedule: Q01DX009 (ip), vehicle: saline 116 % of control and 110 % of control | [1] 122 % of control and 124 % of control | [2] 106 % of control

O=C(OC1C=CC2CCC1C2)c1ccc([N+](=O)[O-])cc1 (stereo not given)
inactive: endpoint: mean survival time, dose: 50.0 mg/kg/injection, schedule: Q01DX009 (ip), vehicle: saline with Tween-80 98 % of control | [3] 94 % of control | [4] 87 % of control | [5] 93 % of control | [6] 87 % of control

O=C(COc1ccc(Cl)c(Cl)c1)Nc1ccc(Cl)cc1
inactive: endpoint: mean survival time, dose: 6.25 mg/kg/injection, schedule: Q01DX009 (ip), vehicle: saline with Tween-80 98 % of control | endpoint: mean survival time, dose: 12.5 mg/kg/injection, schedule: Q01DX009 (ip), vehicle: saline with Tween-80 98 % of control | endpoint: mean survival time, dose: 25.0 mg/kg/injection, schedule: Q01DX009 (ip), vehicle: saline with Tween-80 98 % of control

OC(c1ccccc1)(c1ccccc1)c1cc2ccccc2[nH]1
inactive: [7] 89 % of control | endpoint: mean survival time, dose: 400.0 mg/kg/injection, schedule: Q01DX001 (ip), vehicle: saline with Tween-80 89 % of control

O=C(NCCCCCCNC(=O)Nc1cccc(Cl)c1)Nc1cccc(Cl)c1
inactive: endpoint: mean survival time, dose: 50.0 mg/kg/injection, schedule: Q01DX009 (ip), vehicle: Klucel (hydroxypropylcellulose) (HPC) 94 % of control | endpoint: mean survival time, dose: 100.0 mg/kg/injection, schedule: Q01DX009 (ip), vehicle: Klucel (hydroxypropylcellulose) (HPC) 91 % of control | endpoint: mean survival time, dose: 200.0 mg/kg/injection, schedule: Q01DX009 (ip), vehicle: Klucel (hydroxypropylcellulose) (HPC) 88 % of control

Cc1ccc(S(=O)(=O)NC(=O)C(Cc2ccccc2)c2ccccc2)cc1 (stereo not given)
inactive: [8] 96 % of control | [9] 98 % of control | [10] 96 % of control

CC(C)(c1cc(Cl)c(OCCO)c(Cl)c1)c1cc(Cl)c(OCCO)c(Cl)c1
inactive: [4] 105 % of control | [6] 102 % of control | [11] 109 % of control

O=C1c2ccccc2C(=O)N1c1ccc(Br)cc1
inactive: endpoint: mean survival time, dose: 100.0 mg/kg/injection, schedule: Q01DX001 (ip), vehicle: Klucel (hydroxypropylcellulose) (HPC) 100 % of control | endpoint: mean survival time, dose: 400.0 mg/kg/injection, schedule: Q01DX001 (ip), vehicle: Klucel (hydroxypropylcellulose) (HPC) 96 % of control

NCc1ncn[nH]1
inactive: [12] 100 % of control | [13] 96 % of control

N/C(=N/N=C/c1ccc(O)cc1)N[N+](=O)[O-]
inactive: endpoint: mean survival time, dose: 100.0 mg/kg/injection, schedule: Q04DX003 (ip), vehicle: Klucel (hydroxypropylcellulose) (HPC) 92 % of control | endpoint: mean survival time, dose: 200.0 mg/kg/injection, schedule: Q04DX003 (ip), vehicle: Klucel (hydroxypropylcellulose) (HPC) 86 % of control | endpoint: mean survival time, dose: 400.0 mg/kg/injection, schedule: Q04DX003 (ip), vehicle: Klucel (hydroxypropylcellulose) (HPC) 92 % of control

CCOc1ccc(-n2c(=O)c(N=Nc3ccccc3)c(O)n(-c3ccc(C)cc3)c2=S)cc1
inactive: [7] 97 % of control | endpoint: mean survival time, dose: 200.0 mg/kg/injection, schedule: Q01DX001 (ip), vehicle: saline with Tween-80 89 % of control

COC(=O)c1ncccc1C(=O)O
inactive: [4] 94 % of control | [6] 86 % of control | [11] 86 % of control

CC(=O)Oc1ccccc1C(CC(C)C)OC(C)=O (stereo not given)
inactive: endpoint: mean survival time, dose: 100.0 mg/kg/injection, schedule: Q01DX001 (ip), vehicle: saline 96 % of control | endpoint: mean survival time, dose: 200.0 mg/kg/injection, schedule: Q01DX001 (ip), vehicle: saline 96 % of control

C=CCNC(N)=O
inactive: [12] 94 % of control | [13] 93 % of control

CC(C)C1C(=O)CCCC1=O
inactive: [4] 102 % of control | [6] 105 % of control | [11] 96 % of control

CN(C)C(=O)c1cc[n+](Cc2ccc(Cl)c(Cl)c2)cc1
inactive: [1] 98 % of control | [2] 121 % of control | [14] 89 % of control

O=C(O)CC12CCCCC1CCCC2 (stereo not given)
inactive: endpoint: mean survival time, dose: 100.0 mg/kg/injection, schedule: Q04DX003 (ip), vehicle: acetone 95 % of control | endpoint: mean survival time, dose: 200.0 mg/kg/injection, schedule: Q04DX003 (ip), vehicle: acetone 91 % of control | endpoint: mean survival time, dose: 400.0 mg/kg/injection, schedule: Q04DX003 (ip), vehicle: acetone 90 % of control

O=C(/C=C\c1ccc(Cl)c(Cl)c1)/C=C/c1ccc(Cl)c(Cl)c1
inactive: endpoint: mean survival time, dose: 25.0 mg/kg/injection, schedule: Q04DX002 (ip), vehicle: saline with Tween-80 95 % of control | endpoint: mean survival time, dose: 50.0 mg/kg/injection, schedule: Q04DX002 (ip), vehicle: saline with Tween-80 87 % of control | endpoint: mean survival time, dose: 100.0 mg/kg/injection, schedule: Q04DX002 (ip), vehicle: saline with Tween-80 106 % of control

CCOC(=O)c1sc(N)c(C(=O)OCC)c1C
inactive: [3] 98 % of control | [4] 95 % of control | [5] 93 % of control | [6] 95 % of control | [15] 91 % of control | [11] 101 % of control

CC(C)Oc1ccc(N2C(=O)C(C)CNC2=S)cc1 (stereo not given)
inactive: [8] 96 % of control | [9] 97 % of control | [10] 96 % of control

Cc1cc(C)c(C(=O)C2Oc3ccccc3C2c2ccccc2)c(C)c1 (stereo not given)
inactive: [3] 95 % of control | [4] 100 % of control | [5] 97 % of control | [6] 102 % of control | [15] 91 % of control | [11] 100 % of control

CC(=O)OC1C(O)C(O)C(OC(C)=O)C(OC(C)=O)C1OC(C)=O (stereo not given)
inactive: [14] 102 % of control | endpoint: mean survival time, dose: 200.0 mg/kg/injection, schedule: Q01DX009 (ip), vehicle: saline 102 % of control | endpoint: mean survival time, dose: 400.0 mg/kg/injection, schedule: Q01DX009 (ip), vehicle: saline 98 % of control

C(=N/N=C/c1ccsc1)/c1ccsc1
inactive: endpoint: median survival time, dose: 50.0 mg/kg/injection, schedule: Q04DX002 (ip), vehicle: saline with Tween-80 90 % of control | endpoint: median survival time, dose: 100.0 mg/kg/injection, schedule: Q04DX002 (ip), vehicle: saline with Tween-80 90 % of control | endpoint: median survival time, dose: 200.0 mg/kg/injection, schedule: Q04DX002 (ip), vehicle: saline with Tween-80 90 % of control | endpoint: median survival time, dose: 400.0 mg/kg/injection, schedule: Q04DX002 (ip), vehicle: saline with Tween-80 90 % of control

CSC1SCC2C(=O)N(C)C(C(C)C)C(=O)OCC(NC(=O)c3cnc4ccccc4n3)C(=O)NC(C)C(=O)N(C)C1C(=O)N(C)C(C(C)C)C(=O)OCC(NC(=O)c1cnc3ccccc3n1)C(=O)NC(C)C(=O)N2C (stereo not given)
inactive: endpoint: mean survival time, dose: 4.0 micrograms/kg/injection, schedule: Q01DX009 (ip), vehicle: saline 105 % of control | endpoint: mean survival time, dose: 8.0 micrograms/kg/injection, schedule: Q01DX009 (ip), vehicle: saline 107 % of control | endpoint: mean survival time, dose: 15.0 micrograms/kg/injection, schedule: Q01DX009 (ip), vehicle: saline 102 % of control | endpoint: mean survival time, dose: 16.0 micrograms/kg/injection, schedule: Q01DX009 (ip), vehicle: saline 111 % of control | endpoint: mean survival time, dose: 30.0 micrograms/kg/injection, schedule: Q01DX009 (ip), vehicle: saline 118 % of control | endpoint: mean survival time, dose: 32.0 micrograms/kg/injection, schedule: Q01DX009 (ip), vehicle: saline 92 % of control | endpoint: mean survival time, dose: 60.0 micrograms/kg/injection, schedule: Q01DX009 (ip), vehicle: saline 108 % of control | endpoint: mean survival time, dose: 120.0 micrograms/kg/injection, schedule: Q01DX009 (ip), vehicle: saline 86 % of control | endpoint: mean survival time, dose: 192.0 micrograms/kg/injection, schedule: Q01DX009 (ip), vehicle: saline 114 % of control | endpoint: median survival time, dose: 67.0 micrograms/kg/injection, schedule: Q01DX005 (ip), vehicle: saline 122 % of control | endpoint: median survival time, dose: 150.0 micrograms/kg/injection, schedule: Q01DX005 (ip), vehicle: saline 120 % of control and 123 % of control | endpoint: median survival time, dose: 200.0 micrograms/kg/injection, schedule: Q01DX005 (ip), vehicle: saline 106 % of control

CCCc1nc(N)[nH]c(=O)c1CCCCCCCCCCCc1ccccc1
inactive: endpoint: mean survival time, dose: 75.0 mg/kg/injection, schedule: Q01DX001 (ip), vehicle: saline with Tween-80 98 % of control | endpoint: mean survival time, dose: 150.0 mg/kg/injection, schedule: Q01DX001 (ip), vehicle: saline with Tween-80 97 % of control | endpoint: mean survival time, dose: 300.0 mg/kg/injection, schedule: Q01DX001 (ip), vehicle: saline with Tween-80 95 % of control
